Experimental data taken from US20240374598A1, “INHIBITORS OF HUMAN IMMUNODEFICIENCY VIRUS REPLICATION” (ViiV HEALTHCARE UK (NO.5) LIMITED, priority 2018, published 2024).

Key:
[1] = Compound cytotoxicity, XTT-based colorimetric assay; format: cell-based; settings: human; uninfected MT2 cells, day 4, XTT assay
Procedure: Compound cytotoxicity and the corresponding CC50 values were determined using the same protocol as described in the antiviral assay except that uninfected cells were used. Cytotoxicity was assessed on day 4 in uninfected MT2 cells by using a XTT (2,3-bis[2-Methoxy-4-nitro-5-sulfophenyl]-2H-tetrazolium-5-carboxyanilide inner salt)-based colorimetric assay (Sigma-Aldrich, St Louis, Mo).

[2] = tested on: recombinant NL4-3 virus (nef section replaced with Renilla luciferase gene) in MT-2 cells; assay: HIV cell culture assay (antiviral activity, luciferase readout); format: cell-based; settings: NL43, MT-2 cells infected for 4-5 days with recombinant NL4-3 Renilla luciferase virus
Procedure: HIV cell culture assay—MT-2 cells, 293T cells and the proviral DNA clone of NL4-3 virus were obtained from the NIH AIDS Research and Reference Reagent Program. MT-2 cells were propagated in RPMI 1640 media supplemented with 10% heat inactivated fetal bovine serum (FBS), […]. The 293T cells were propagated in DMEM media supplemented with 10% heat inactivated FBS, […]. A recombinant NL4-3 proviral clone, in which a section of the nef gene was replaced with the Renilla luciferase gene, was used to make the reference virus used in these studies. The recombinant virus was prepared through transfection of the recombinant NL4-3 proviral clone into 293T cells using Transit-293 Transfection Reagent from Mirus Bio LLC (Madison, WI). Supernatent was harvested after 2-3 days and the amount of virus present was titered in MT-2 cells using luciferase enzyme activity as a marker by measuring luciferase enzyme activity. Luciferase was quantitated using the EnduRen Live Cell Substrate from Promega (Madison, WI). Antiviral activities of compounds toward the recombinant virus were quantified by measuring luciferase activity in MT-2 cells infected for 4-5 days with the recombinant virus in the presence of serial dilutions of the compound.
The 50% effective concentration (EC50) was calculated by using the exponential form of the median effect equation where (Fa)=1/[1+(ED50/drug conc.)m] (Johnson VA, Byington RT. Infectivity Assay. In Techniques in HIV Research. ed. Aldovini A, Walker BD. 71-76. New York: Stockton Press. 1990). The 50% inhibitory concentration (EC50) was calculated by using the exponential form of the median effect equation where percent inhibition=1/[1+(EC50/drug concentration)m], where m is a parameter that reflects the slope of the concentration-response curve.

**Q.** What does the source list for `CC(C)Oc1ccc2c(=O)n(-c3ccc(Cl)c4c(NS(C)(=O)=O)nn(C)c34)c([C@H](Cc3cc(F)cc(F)c3)NC(=O)Cn3nc(C(F)F)c4c3C(F)(F)[C@@H]3C[C@H]43)nc2c1` [Example 10, N—((S)-1-(3-(4-chloro-1-methyl-3-(methylsulfonamido)-1H-indazol-7-yl)-7-isopropoxy-4-oxo-3,4-dihydroquinazolin-2-yl)-2-(3,5-difluorophenyl)ethyl)-2-((3bS,4aR)-3-(difluoromethyl)-5,5-difluoro-3b,4,4a,5-tetrahydro-1H-cyclopropa[3,4]cyclopenta[1,2-c]pyrazol-1-yl)acetamide]?
**A.** CC50 at 4 day [1]: > 1000 nM; EC50 [2]: 0.107 nM

**Q.** Which CC50 at 4 day [1] does the source give for `CCCCOc1ccc2c(=O)n(-c3ccc(Cl)c4c(NS(C)(=O)=O)nn(C)c34)c([C@H](Cc3cc(F)cc(F)c3)NC(=O)Cn3nc(C(F)F)c4c3C(F)(F)[C@@H]3C[C@H]43)nc2c1` [Example 11, N—((S)-1-(7-butoxy-3-(4-chloro-1-methyl-3-(methylsulfonamido)-1H-indazol-7-yl)-4-oxo-3,4-dihydroquinazolin-2-yl)-2-(3,5-difluorophenyl)ethyl)-2-((3bS,4aR)-3-(difluoromethyl)-5,5-difluoro-3b,4,4a,5-tetrahydro-1H-cyclopropa[3,4]cyclopenta[1,2-c]pyrazol-1-yl)acetamide] here?
**A.** Its CC50 at 4 day is over 1000 nM.

**Q.** And the EC50 [2]?
**A.** Its EC50 is 0.208 nM.

**Q.** What does the source list for `CC(C)COc1ccc2c(=O)n(-c3ccc(Cl)c4c(NS(C)(=O)=O)nn(C)c34)c([C@H](Cc3cc(F)cc(F)c3)NC(=O)Cn3nc(C(F)F)c4c3C(F)(F)[C@@H]3C[C@H]43)nc2c1` [Example 12, N—((S)-1-(3-(4-chloro-1-methyl-3-(methylsulfonamido)-1H-indazol-7-yl)-7-isobutoxy-4-oxo-3,4-dihydroquinazolin-2-yl)-2-(3,5-difluorophenyl)ethyl)-2-((3bS,4aR)-3-(difluoromethyl)-5,5-difluoro-3b,4,4a,5-tetrahydro-1H-cyclopropa[3,4]cyclopenta[1,2-c]pyrazol-1-yl)acetamide]?
**A.** CC50 at 4 day [1]: > 1000 nM; EC50 [2]: 0.109 nM

**Q.** Which results are given for `CC(C)[C@H](C)Oc1ccc2c(=O)n(-c3ccc(Cl)c4c(NS(C)(=O)=O)nn(C)c34)c([C@H](Cc3cc(F)cc(F)c3)NC(=O)Cn3nc(C(F)F)c4c3C(F)(F)[C@@H]3C[C@H]43)nc2c1` [Example 13, N—((S)-1-(3-(4-chloro-1-methyl-3-(methylsulfonamido)-1H-indazol-7-yl)-7-(((S)-3-methylbutan-2-yl)oxy)-4-oxo-3,4-dihydroquinazolin-2-yl)-2-(3,5-difluorophenyl)ethyl)-2-((3bS,4aR)-3-(difluoromethyl)-5,5-difluoro-3b,4,4a,5-tetrahydro-1H-cyclopropa[3,4]cyclopenta[1,2-c]pyrazol-1-yl)acetamide]?
**A.** CC50 at 4 day [1]: > 1000 nM; EC50 [2]: 0.239 nM

**Q.** With `Cc1ccc2c(=O)n(-c3ccc(Cl)c4c(NS(C)(=O)=O)nn(C)c34)c([C@H](Cc3cc(F)cc(F)c3)NC(=O)Cn3nc(C(F)F)c4c3C(F)(F)[C@@H]3C[C@H]43)nc2c1` [Example 15, N—((S)-1-(3-(4-chloro-1-methyl-3-(methylsulfonamido)-1H-indazol-7-yl)-7-methyl-4-oxo-3,4-dihydroquinazolin-2-yl)-2-(3,5-difluorophenyl)ethyl)-2-((3bS,4aR)-3-(difluoromethyl)-5,5-difluoro-3b,4,4a,5-tetrahydro-1H-cyclopropa[3,4]cyclopenta[1,2-c]pyrazol-1-yl)acetamide] as the compound, how does the CC50 at 4 day [1] read?
**A.** Its CC50 at 4 day is over 1000 nM.

**Q.** And the EC50 [2]?
**A.** Its EC50 is 0.071 nM.

**Q.** What does the source list for `CCc1ccc2c(=O)n(-c3ccc(Cl)c4c(NS(C)(=O)=O)nn(C)c34)c([C@H](Cc3cc(F)cc(F)c3)NC(=O)Cn3nc(C(F)F)c4c3C(F)(F)[C@@H]3C[C@H]43)nc2c1` [Example 16, N—((S)-1-(3-(4-chloro-1-methyl-3-(methylsulfonamido)-1H-indazol-7-yl)-7-ethyl-4-oxo-3,4-dihydroquinazolin-2-yl)-2-(3,5-difluorophenyl)ethyl)-2-((3bS,4aR)-3-(difluoromethyl)-5,5-difluoro-3b,4,4a,5-tetrahydro-1H-cyclopropa[3,4]cyclopenta[1,2-c]pyrazol-1-yl)acetamide]?
**A.** CC50 at 4 day [1]: > 1000 nM; EC50 [2]: 0.084 nM

**Q.** For `CC(F)(F)c1ccc2c(=O)n(-c3ccc(Cl)c4c(NS(C)(=O)=O)nn(CC(F)F)c34)c([C@H](Cc3cc(F)cc(F)c3)NC(=O)Cn3nc(C(F)F)c4c3C(F)(F)[C@@H]3C[C@H]43)nc2c1` [Example 17, N—((S)-1-(3-(4-chloro-1-(2,2-difluoroethyl)-3-(methylsulfonamido)-1H-indazol-7-yl)-7-(1,1-difluoroethyl)-4-oxo-3,4-dihydroquinazolin-2-yl)-2-(3,5-difluorophenyl)ethyl)-2-((3bS,4aR)-3-(difluoromethyl)-5,5-difluoro-3b,4,4a,5-tetrahydro-1H-cyclopropa[3,4]cyclopenta[1,2-c]pyrazol-1-yl)acetamide], which CC50 at 4 day [1] is on record?
**A.** The CC50 at 4 day was over 1000 nM.

**Q.** And the EC50 [2]?
**A.** The EC50 was 0.083 nM.

**Q.** What does the source list for `CC(F)(F)c1ccc2c(=O)n(-c3ccc(Cl)c4c(NS(=O)(=O)C5CC5)nn(CC(F)F)c34)c([C@H](Cc3cc(F)cc(F)c3)NC(=O)Cn3nc(C(F)F)c4c3C(F)(F)[C@@H]3C[C@H]43)nc2c1` [Example 18, N—((S)-1-(3-(4-chloro-3-(cyclopropanesulfonamido)-1-(2,2-difluoroethyl)-1H-indazol-7-yl)-7-(1,1-difluoroethyl)-4-oxo-3,4-dihydroquinazolin-2-yl)-2-(3,5-difluorophenyl)ethyl)-2-((3bS,4aR)-3-(difluoromethyl)-5,5-difluoro-3b,4,4a,5-tetrahydro-1H-cyclopropa[3,4]cyclopenta[1,2-c]pyrazol-1-yl)acetamide]?
**A.** CC50 at 4 day [1]: > 1000 nM; EC50 [2]: 0.069 nM

**Q.** With `CCCc1ccc2c(=O)n(-c3ccc(Cl)c4c(NS(C)(=O)=O)nn(C)c34)c([C@H](Cc3cc(F)cc(F)c3)NC(=O)Cn3nc(C(F)F)c4c3C(F)(F)[C@@H]3C[C@H]43)nc2c1` [Example 19, N—((S)-1-(3-(4-chloro-1-methyl-3-(methylsulfonamido)-1H-indazol-7-yl)-4-oxo-7-propyl-3,4-dihydroquinazolin-2-yl)-2-(3,5-difluorophenyl)ethyl)-2-((3bS,4aR)-3-(difluoromethyl)-5,5-difluoro-3b,4,4a,5-tetrahydro-1H-cyclopropa[3,4]cyclopenta[1,2-c]pyrazol-1-yl)acetamide] as the compound, how does the CC50 at 4 day [1] read?
**A.** The CC50 at 4 day was over 1000 nM.

**Q.** And the EC50 [2]?
**A.** Its EC50 is 0.063 nM.

**Q.** What does the source list for `CCC(F)(F)c1ccc2c(=O)n(-c3ccc(Cl)c4c(NS(C)(=O)=O)nn(C)c34)c([C@H](Cc3cc(F)cc(F)c3)NC(=O)Cn3nc(C(F)F)c4c3C(F)(F)[C@@H]3C[C@H]43)nc2c1` [Example 20, N—((S)-1-(3-(4-chloro-1-methyl-3-(methylsulfonamido)-1H-indazol-7-yl)-7-(1,1-difluoropropyl)-4-oxo-3,4-dihydroquinazolin-2-yl)-2-(3,5-difluorophenyl)ethyl)-2-((3bS,4aR)-3-(difluoromethyl)-5,5-difluoro-3b,4,4a,5-tetrahydro-1H-cyclopropa[3,4]cyclopenta[1,2-c]pyrazol-1-yl)acetamide]?
**A.** CC50 at 4 day [1]: > 1000 nM; EC50 [2]: 0.122 nM

**Q.** For `Cn1nc(NS(C)(=O)=O)c2c(Cl)ccc(-n3c([C@H](Cc4cc(F)cc(F)c4)NC(=O)Cn4nc(C(F)F)c5c4C(F)(F)[C@@H]4C[C@H]54)nc4cc(CCC(F)(F)F)ccc4c3=O)c21` [Example 21, N—((S)-1-(3-(4-chloro-1-methyl-3-(methylsulfonamido)-1H-indazol-7-yl)-4-oxo-7-(3,3,3-trifluoropropyl)-3,4-dihydroquinazolin-2-yl)-2-(3,5-difluorophenyl)ethyl)-2-((3bS,4aR)-3-(difluoromethyl)-5,5-difluoro-3b,4,4a,5-tetrahydro-1H-cyclopropa[3,4]cyclopenta[1,2-c]pyrazol-1-yl)acetamide], which CC50 at 4 day [1] is on record?
**A.** The CC50 at 4 day was over 1000 nM.

**Q.** And the EC50 [2]?
**A.** The EC50 was 0.122 nM.

**Q.** What does the source list for `Cn1nc(NS(C)(=O)=O)c2c(CCC(F)(F)F)ccc(-n3c([C@H](Cc4cc(F)cc(F)c4)NC(=O)Cn4nc(C(F)F)c5c4C(F)(F)[C@@H]4C[C@H]54)nc4cc(CCC(F)(F)F)ccc4c3=O)c21` [Example 22, 2-((3bS,4aR)-3-(difluoromethyl)-5,5-difluoro-3b,4,4a,5-tetrahydro-1H-cyclopropa[3,4]cyclopenta[1,2-c]pyrazol-1-yl)-N—((S)-2-(3,5-difluorophenyl)-1-(3-(1-methyl-3-(methylsulfonamido)-4-(3,3,3-trifluoropropyl)-1H-indazol-7-yl)-4-oxo-7-(3,3,3-trifluoropropyl)-3,4-dihydroquinazolin-2-yl)ethyl)acetamide]?
**A.** CC50 at 4 day [1]: > 1000 nM; EC50 [2]: 0.573 nM
